Where two headings read alike, the source gives them in different places.
Assays:
MLL1-WRAD2 complex = MLL1-WRAD2 complex (Homo sapiens (Human), UniProt P61964); assay: MLL1-WRAD2 enzyme assay (in vitro methyl transferase assay); assay type: biochemical; settings: MLL1-WRAD2 assay; read-out: In vitro MLL1 activity (IC50)
Experimental: Reaction was initiated with 1 μM 3H-SAM and incubated for 1 hour at 30° C. Reaction mixture was transferred to P81 filter-paper and washed with PBS before detection.

[1] = system: H3K4 dimethylation (H3K4me2) in T24 cells; assay: Detection of in-cell H3K4 dimethylation (AlphaLisa); assay type: cell-based; settings: Homo sapiens, T-24, 120 h, five days
Experimental: T24 cells were seeded into a 96-well plate at 400 cells/well in 150 μl medium (McCoy 5A containing 10% FBS, 100 μg/ml Normocin, and 50 μg/ml Gentamycin, Invitrogen). A HP D300 digital dispenser was used to dose cells with DMSO or test compounds across a 10-point range of concentrations (high dose of 10 μM), and cultures were grown in a humidified 5% CO2 incubator at 37° C. After five days, plates were removed from incubator, media was aspirated, and the cells washed in PBS. Cell lysis, histone extraction, and detection of H3K4 dimethylation (H3K4me2) were performed using an AlphaLisa kit according to the manufacturer's instructions (Perkin Elmer). Signal was measured using an Envision plate reader.

MV4-11 cells = assay: Cell proliferation assay (ATPlite); assay type: cell-based; settings: Homo sapiens, MV4-11, 120 h; MV-411 cells, five days; read-out: In vitro whole cell potency in MV-411 cells, (IC50)
Experimental: MV4-11 cells were seeded into a 96-well plate at 1,000 cells/well in 150 μl medium (Alpha-MEM containing 10% FBS, 100 μg/ml Normocin, and 50 μg/ml Gentamycin, Invitrogen). A HP D300 digital dispenser was used to dose cells with DMSO or test compounds across a 10-point range of concentrations (high dose of 10 μM), and cultures were grown in a humidified 5% CO2 incubator at 37° C. After five days, plates were removed from incubator and equilibrated to room temperature. An equal volume of ATPlite assay reagent was added to each well, and samples were processed according to manufacturer's instructions (Perkin Elmer). Luminescent signal was measured using an Envision plate reader equipped with a US-Luminescence detector.

WDR5 protein = WDR5 protein (Homo sapiens (Human), UniProt P61964); assay: Surface Plasmon Resonance (SPR) assay; assay type: binding; settings: SPR; for residence time: τ=1/koff, read-out: Residence Time (t, min)
Experimental: Exemplary compounds of the application were dissolved in 100% DMSO at 10 mM, assayed fresh, and then stored at −20° C. for repeat studies and other experiments. Full length WDR5 with an N-terminal His tag and C-terminal AviTag (Avidity Inc.) was expressed in E. coli with coexpression of BirA to biotin label the protein in vivo. Purification was via Ni-NTA. The purified WDR5 protein has a molecular weight of 41976 Da.
SPR studies were performed using a Biacore™ T200 instrument (GE Health Sciences Inc.). Biotinylated WDR5 protein (approximately 3000RU) was stably captured to streptavidin coupled SA chips according to the manufacture's protocol (GE Health Sciences Inc.). The running buffer used was HBS-EP (20 mM Hepes pH 7.4, 150 mM NaCl, 3 mM EDTA, 0.05% P-20) plus 5% DMSO with a flow rate of 40p1/min. For SPR analysis, 5 different concentrations of each exemplary compound of the application were sprayed into 96 or 384 well plates using an HP D300 digital dispenser. […] Curve fitting and KD calculations were performed with the Biacore T200 Evaluation software (GE Health Sciences Inc).

[2] = Table 1, read-out: WDR5 binding affinity (KD)
[3] = Table 2, read-out: WDR5 binding affinity SPR (KD)

| IC50 (MLL1-WRAD2 complex) [nM] | IC50 [1] [nM] | IC50 (MV4-11 cells) [nM] | Kd (WDR5 protein; [2]) [nM] | Kd (WDR5 protein; [3]) [nM] | residence time (WDR5 protein) [min] | Compound |
| --- | --- | --- | --- | --- | --- | --- |
| 939 | 952 | 634 | – | – | – | CN1CCN(c2ccc(-c3cc(CN4CCOCC4)ccc3F)cc2NC(=O)c2c[nH]c(=O)cc2C(F)(F)F)CC1 [Example 2, N-(2′-fluoro-4-(4-methylpiperazin-1-yl)-5′-(morpholinomethyl)-[1,1′-biphenyl]-3-yl)-6-oxo-4-(trifluoromethyl)-1,6-dihydropyridine-3-carboxamide] |
| 2070 | – | 2710 | 4.8 | 4.8 | 4.29 | CN1CCN(c2ccc(-c3cc(CN4CC[C@@H](N(C)C)C4)ccc3F)cc2NC(=O)c2c[nH]c(=O)cc2C(F)(F)F)CC1 [Example 71, (R)—N-(5′-((3-(dimethylamino)pyrrolidin-1-yl)methyl)-2′-fluoro-4-(4-methylpiperazin-1-yl)-[1,1′-biphenyl]-3-yl)-6-oxo-4-(trifluoromethyl)-1,6-dihydropyridine-3-carboxamide] |
| 5930 | – | > 10000 | 5.1 | 5.1 | 1.16 | CN1CCN(c2ccc(-c3cc(CN4CCNCC4)ccc3F)cc2NC(=O)c2c[nH]c(=O)cc2C(F)(F)F)CC1 [Example 72, N-(2′-fluoro-4-(4-methylpiperazin-1-yl)-5′-(piperazin-1-ylmethyl)-[1,1′-biphenyl]-3-yl)-6-oxo-4-(trifluoromethyl)-1,6-dihydropyridine-3-carboxamide] |
| 592 | – | 502 | 4.2 | 4.2 | 5.44 | CN1CCN(c2ccc(-c3cc(CN4CCC(F)CC4)ccc3F)cc2NC(=O)c2c[nH]c(=O)cc2C(F)(F)F)CC1 [Example 73, N-(2′-fluoro-5′-((4-fluoropiperidin-1-yl)methyl)-4-(4-methylpiperazin-1-yl)-[1,1′-biphenyl]-3-yl)-6-oxo-4-(trifluoromethyl)-1,6-dihydropyridine-3-carboxamide] |
| 2090 | – | 1220 | 5.9 | 5.9 | 5.13 | CN1CCN(c2ccc(-c3cc(CN4CC[C@@H](S(C)(=O)=O)C4)ccc3F)cc2NC(=O)c2c[nH]c(=O)cc2C(F)(F)F)CC1 [Example 75, (R)—N-(2′-fluoro-4-(4-methylpiperazin-1-yl)-5′-((3-(methylsulfonyl)pyrrolidin-1-yl)methyl)-[1,1′-biphenyl]-3-yl)-6-oxo-4-(trifluoromethyl)-1,6-dihydropyridine-3-carboxamide] |
| 1900 | – | 787 | 5.5 | 5.5 | 3.81 | CN1CCN(c2ccc(-c3cc(CN(C)[C@H]4CCOC4)ccc3F)cc2NC(=O)c2c[nH]c(=O)cc2C(F)(F)F)CC1 [Example 76, (S)—N-(2′-fluoro-5′-((methyl(tetrahydrofuran-3-yl)amino)methyl)-4-(4-methylpiperazin-1-yl)-[1,1′-biphenyl]-3-yl)-6-oxo-4-(trifluoromethyl)-1,6-dihydropyridine-3-carboxamide] |
| 907 | – | 1280 | 4.5 | 4.5 | 5.41 | CN1CCN(c2ccc(-c3cc(CN4CCOC(C)(C)C4)ccc3F)cc2NC(=O)c2c[nH]c(=O)cc2C(F)(F)F)CC1 [Example 77, N-(5′-((2,2-dimethylmorpholino)methyl)-2′-fluoro-4-(4-methylpiperazin-1-yl)-[1,1′-biphenyl]-3-yl)-6-oxo-4-(trifluoromethyl)-1,6-dihydropyridine-3-carboxamide] |
| > 30000 | – | > 10000 | 6.3 | 17.5 | 0.78 | CC1CN(c2ccc(-c3cc(C(=O)NC4CCCCC4)ccc3F)cc2NC(=O)c2c[nH]c(=O)cc2C(F)(F)F)CCN1C (stereo not drawn) [Example 81, N-(5′-(cyclohexylcarbamoyl)-4-(3,4-dimethylpiperazin-1-yl)-2′-fluoro-[1,1′-biphenyl]-3-yl)-6-oxo-4-(trifluoromethyl)-1,6-dihydropyridine-3-carboxamide] |
| 549 | – | 536 | 0.7 | 0.7 | 23 | C[C@@H]1CN(c2ccc(-c3ccc(OCC4CC4)nc3F)cc2NC(=O)c2c[nH]c(=O)cc2C(F)(F)F)C[C@H](C)N1C [Example 82, N-(5-(6-(cyclopropylmethoxy)-2-fluoropyridin-3-yl)-2-((3R,5S)-3,4,5-trimethylpiperazin-1-yl)phenyl)-6-oxo-4-(trifluoromethyl)-1,6-dihydropyridine-3-carboxamide] |
| 49 | – | 87 | 3 | 3.1 | 11.6 | C[C@@H]1CN(c2ccc(-c3nc(N4CCOCC4)ncc3F)cc2NC(=O)c2c[nH]c(=O)cc2C(F)(F)F)C[C@H](C)N1C [Example 125, N-(5-(5-fluoro-2-morpholinopyrimidin-4-yl)-2-((3S,5R)-3,4,5-trimethylpiperazin-1-yl)phenyl)-6-oxo-4-(trifluoromethyl)-1,6-dihydropyridine-3-carboxamide] |

| Compound | IC50 (MLL1-WRAD2 complex) [nM] | IC50 [1] [nM] | IC50 (MV4-11 cells) [nM] | Kd (WDR5 protein; [2]) [nM] | Kd (WDR5 protein; [3]) [nM] | residence time (WDR5 protein) [min] |
| --- | --- | --- | --- | --- | --- | --- |
| CN1CCN(c2ccc(-c3cc(CN4C5COCC4C5)ccc3F)cc2NC(=O)c2c[nH]c(=O)cc2C(F)(F)F)CC1 [Example 74, N-(5′-(3-oxa-6-azabicyclo[3.1.1]heptan-6-ylmethyl)-2′-fluoro-4-(4-methylpiperazin-1-yl)-[1,1′-biphenyl]-3-yl)-6-oxo-4-(trifluoromethyl)-1,6-dihydropyridine-3-carboxamide] | 1750 | – | 5430 | 4.8 | 4.8 | – |
| C[C@@H]1CN(c2ccc(-c3cc(C(=O)Nc4ccccc4)ccc3F)cc2NC(=O)c2c[nH]c(=O)cc2C(F)(F)F)C[C@H](C)N1C [Example 80, N-(2′-fluoro-5′-(phenylcarbamoyl)-4-((3S,5R)-3,4,5-trimethylpiperazin-1-yl)-[1,1′-biphenyl]-3-yl)-6-oxo-4-(trifluoromethyl)-1,6-dihydropyridine-3-carboxamide] | 3990 | – | 2180 | 4 | 14 | 2.18 |

— US11174250B2, “Substituted carboxamides as inhibitors of WDR5 protein-protein binding” (PROPELLON THERAPEUTICS INC., priority 2016, dated 2021)
